From PMC6017357, “In Vitro Inhibitory Effects of Synthetic Cannabinoid EAM-2201 on Cytochrome P450 and UDP-Glucuronosyltransferase Enzyme Activities in Human Liver Microsomes” (Molecules : A Journal of Synthetic Chemistry and Natural …, 2018)

Experiments:
UGT1A3 = molecular target: T1, UGT1A3 (Homo sapiens, UniProt P35503); assay: UGT1A3-catalyzed chenodeoxycholic acid 24-acyl-glucuronidation in human liver microsomes; format: in vitro ADME; set-up: from tissue; host or cells: ultrapooled human liver microsomes
T1 sequence (P35503 29-534): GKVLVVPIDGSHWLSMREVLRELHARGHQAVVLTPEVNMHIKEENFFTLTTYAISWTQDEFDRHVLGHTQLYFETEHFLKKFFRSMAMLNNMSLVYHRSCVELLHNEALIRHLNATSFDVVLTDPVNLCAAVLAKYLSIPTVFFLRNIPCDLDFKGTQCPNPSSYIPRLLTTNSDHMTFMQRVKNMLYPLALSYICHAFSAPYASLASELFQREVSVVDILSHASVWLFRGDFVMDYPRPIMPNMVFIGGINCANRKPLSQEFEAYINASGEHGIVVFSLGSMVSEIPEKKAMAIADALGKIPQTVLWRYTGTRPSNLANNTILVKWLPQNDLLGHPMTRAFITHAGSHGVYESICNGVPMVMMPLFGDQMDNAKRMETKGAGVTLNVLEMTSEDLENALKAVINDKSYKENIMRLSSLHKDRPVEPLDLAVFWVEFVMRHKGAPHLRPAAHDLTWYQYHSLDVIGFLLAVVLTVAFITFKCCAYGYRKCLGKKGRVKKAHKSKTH
Protocol: The inhibitory effects of EAM-2201 on UGT1A1, UGT1A3, UGT1A4, UGT1A6, UGT1A9 and UGT2B7 were evaluated using LC-MS/MS and the cocktail of UGT substrates as previously described. […] Supernatant from sets A and B (50 µL of each) was mixed and aliquots (5 µL) were analyzed by LC-MS/MS. […]
Reactions were initiated by adding UDPGA at 37 °C and stopped after 60 min by adding 100 µL ice-cold methanol containing propofol glucuronide (internal standard). […] Aliquots (5 µL) of the diluted supernatants were analyzed using LC-MS/MS.
(§1) The metabolites formed from the six UGT cocktail substrates were simultaneously measured using LC-MS/MS [41]. […] Each metabolite was quantified via SRM in the negative ion mode: chenodeoxycholic acid 24-acyl-β-glucuronide, 567.2 > 391.0; mycophenolic acid glucuronide, 495.2 > 318.9; and propofol glucuronide (IS), 353.3 > 177.1; and in the positive ion mode: SN-38 glucuronide, 569.0 > 393.0; trifluoperazine glucuronide, 584.2 > 408.1; N-acetylserotonin-β-D-glucuronide, 395.2 > 219.0; naloxone 3-β-D-glucuronide, 504.0 > 310.0; and meloxicam (IS), 352.0 > 115.1. […]

UGT1A1 = molecular target: T2, UGT1A1 (Homo sapiens, UniProt P22309); assay: UGT1A1-catalyzed SN-38 glucuronidation in human liver microsomes; format: in vitro ADME; conditions: at 50 µM
T2 construct: ultrapooled human liver microsomes (0.2 mg/mL), 5 mM UDPGA; from tissue; host or cells: ultrapooled human liver microsomes
T2 sequence (P22309 26-533): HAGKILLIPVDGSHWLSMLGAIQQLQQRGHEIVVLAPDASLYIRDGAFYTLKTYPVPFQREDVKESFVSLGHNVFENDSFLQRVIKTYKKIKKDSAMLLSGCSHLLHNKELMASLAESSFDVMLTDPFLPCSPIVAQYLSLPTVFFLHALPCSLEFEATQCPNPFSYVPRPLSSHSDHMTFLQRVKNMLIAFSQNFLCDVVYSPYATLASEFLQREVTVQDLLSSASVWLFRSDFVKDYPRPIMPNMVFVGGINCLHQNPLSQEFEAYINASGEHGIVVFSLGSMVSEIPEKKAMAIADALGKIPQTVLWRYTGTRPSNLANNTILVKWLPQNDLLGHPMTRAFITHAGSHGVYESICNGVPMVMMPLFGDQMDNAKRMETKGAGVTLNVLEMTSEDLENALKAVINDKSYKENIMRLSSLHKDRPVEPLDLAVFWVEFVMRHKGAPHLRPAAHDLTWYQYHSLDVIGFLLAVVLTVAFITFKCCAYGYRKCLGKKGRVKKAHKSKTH
Protocol: The inhibitory effects of EAM-2201 on UGT1A1, UGT1A3, UGT1A4, UGT1A6, UGT1A9 and UGT2B7 were evaluated using LC-MS/MS and the cocktail of UGT substrates as previously described. Each incubation mixture was prepared in a final volume of 100 µL as follows: ultrapooled human liver microsomes (0.2 mg/mL), 5 mM UDPGA, 10 mM magnesium chloride, alamethicin (25 µg/mL), 50 mM Tris buffer (pH 7.4), various concentrations of EAM-2201 in DMSO (final concentrations of 1–50 µM, 0.5% DMSO) and the UGT enzyme-specific substrates of two cocktail sets (set A: 0.5 µM SN-38, 2 µM chenodeoxycholic acid and 0.5 µM trifluoperazine; set B: 1 µM N-acetylserotonin, 0.2 µM mycophenolic acid and 1 µM naloxone, acetonitrile content, 0.5%). […] Supernatant from sets A and B (50 µL of each) was mixed and aliquots (5 µL) were analyzed by LC-MS/MS. […]
as §1

With `CCc1ccc(C(=O)c2cn(CCCCCF)c3ccccc23)c2ccccc12` [EAM-2201, (4-ethyl-1-naphthalenyl)[1-(5-fluoropentyl)-1H-indol-3-yl]-methanone] the IC50 (UGT1A3) was 11.7 µM, the Ki (UGT1A3) was 2.4 µM and the “inhibition of UGT1A1-catalyzed SN-38 glucuronidation” value (UGT1A1) was “negligibly inhibited”.
